Patent publication US8217039B2, “Aprepitant polymorph mixtures” (Dr. Reddy's Laboratories Ltd., priority 2006, dated 2012)
In brackets after ≈: the same amount, converted by molar mass.

Experiments:
[1] = 2:1 v/v methanol/water mixture at 0° C.; cited from earlier work
[2] = cited from earlier work
[3] = Stability studies of 50:50 intimate mixture under stress conditions (Form I to Form II ratio by XRPD); format: physicochemical; conditions: milling, micronization, or drying at about 90° C. for prolonged periods
Protocol: Experimental conditions for performing the XRPD analysis for quantification were as follows: Process the diffraction peak for Form II≈21.15° (2θ) with constant smooth factor of 0.07 to check the detection of Form II and for the quantification of Form II the area of Form II peak and reference peak of Form I were taken. The Form I and Form II areas of two preparations of the test sample were noted. Then average the Form I and Form II areas. The percentage of Form II in Form I is calculated by the following formula: % of Form II=[(S2/S1)÷K=(S2/S1)]×100 • S1=Area of peak corresponding to Form I • S2=Area of peak corresponding to Form II K=Response constant for Form II relative to Form I. The areas of the peaks associated with Form I and Form II (characteristic peaks) were measured using Bruker X-ray diffraction evaluation software. From these areas, the response constant for Form II relative to Form I was determined. The value for the K factor was 0.32. A 50:50 weight ratio intimate mixture of aprepitant Form I and Form II prepared using the process of Example 12 was subjected to different conditions to determine the stability of the mixture under stress conditions.

SMILES | solubility [1] [µg/mL] | thermodynamic stability compared with other crystalline forms ([2]; compared with Form II) | hygroscopicity ([2]; compared with other crystalline forms) | conversion to Form I upon stress conditions [3] | numeric ratio of solubilities (Form II vs Form I) [1]
C[C@@H](O[C@H]1OCCN(Cc2n[nH]c(=O)[nH]2)[C@H]1c1ccc(F)cc1)c1cc(C(F)(F)F)cc(C(F)(F)F)c1 [Form I, 5-[[(2R,3S)-2-[(1R)-1-[3,5-bis(trifluoromethyl)phenyl]ethoxy]-3-(4-fluorophenyl)-4-morpholinyl]methyl]-1,2-dihydro-3H-1,2,4-triazol-3-one] | 900 ± 100 (≈ 1680 µM) | superior thermodynamic stability | non-hygroscopic | – | –
C[C@@H](O[C@H]1OCCN(Cc2n[nH]c(=O)[nH]2)[C@H]1c1ccc(F)cc1)c1cc(C(F)(F)F)cc(C(F)(F)F)c1 [5-[[(2R,3S)-2-[(1R)-1-[3,5-bis(trifluoromethyl)phenyl]ethoxy]-3-(4-fluorophenyl)-4-morpholinyl]methyl]-1,2-dihydro-3H-1,2,4-triazol-3-one] | – | – | – | does not convert to the more stable Form I | –
C[C@@H](O[C@H]1OCCN(Cc2n[nH]c(=O)[nH]2)[C@H]1c1ccc(F)cc1)c1cc(C(F)(F)F)cc(C(F)(F)F)c1 [Form II, 5-[[(2R,3S)-2-[(1R)-1-[3,5-bis(trifluoromethyl)phenyl]ethoxy]-3-(4-fluorophenyl)-4-morpholinyl]methyl]-1,2-dihydro-3H-1,2,4-triazol-3-one] | 1300 ± 200 (≈ 2430 µM) | – | – | – | 1.4
